Where “and” joins values, the source holds several entries; their conditions need not be identical. Equal values may be shown once. Read-outs that look alike come from different tables or passages of the source.
What was measured:
Assay in all cases: Chemosensitivity, 96 h continuous exposure, MTT assay
Format in all cases: cell-based, human
DLD-1 = test system: DLD-1
Method in brief: (§1)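 IC50 is the concentration giving 50% growth reduction, derived from dose-response curves of MTT absorbance at 540 nm. Before dosing, lines were plated at 2 × 10^3 cells/well, GBM1 stem-like cells at 3 × 10^3/well, overnight at 37 °C; compound exposure lasted 96 h without interruption, vehicle 0.2% DMSO.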

HCT116 p53+/+ = test system: HCT116 p53+/+
Method in brief: as §1

A549 = test system: A549
Method in brief: as §1

BxPC3 = test system: BxPC3
Method in brief: as §1

MCF10A non-cancer cells = test system: MCF10A non-cancer cells
Method in brief: as §1

MiaPaCa2 = test system: MiaPaCa2
Method in brief: as §1

HCT116 p53-/- = test system: HCT116 p53-/-
Method in brief: as §1

Structure (SMILES): O=S(=O)([O-])[O-].[Cu+2].[Cu+2].[Cu+2].c1ccc(-c2csc(NCCN(CCNc3nc(-c4ccccn4)cs3)CCNc3nc(-c4ccccn4)cs3)n2)nc1.c1ccc(-c2csc(NCCN(CCNc3nc(-c4ccccn4)cs3)CCNc3nc(-c4ccccn4)cs3)n2)nc1 [[L2Cu3(SO4)]4+]
- IC50 (DLD-1; DLD-1, mean of replicates, read-out: Mean IC50): 0.65 µM
- IC50 (DLD-1; DLD-1, read-out: Mean IC50 values): 0.65 µM
- Selectivity index (ARPE19) (DLD-1; IC50 ARPE-19 / IC50 DLD-1): 185.09
- Selectivity index (MCF10A) (DLD-1; IC50 MCF10A / IC50 DLD-1): 76.51
- Relative potency (+ anion to no anion), Ratio + anion:no anion (DLD-1; ratio of IC50, DLD-1): 4.92
- Selectivity indices relative to ARPE-19, Ratio + anion:no anion (DLD-1; ratio of SI (ARPE-19), DLD-1): 0.464
- Selectivity indices relative to MCF10A, Ratio + anion:no anion (DLD-1; ratio of SI (MCF 10A), DLD-1): 0.209
- IC50 (HCT116 p53+/+; HCT116 p53+/+, mean of replicates, read-out: Mean IC50): 0.668 µM
- IC50 (HCT116 p53+/+; HCT116 p53+/+, read-out: Mean IC50 values): 0.668 µM
- IC50 (HCT116 p53+/+; HCT116 p53+/+, single replicate, read-out: IC50 values for each replicate): 0.643 µM and 0.713 µM and 0.647 µM
- Selectivity index (ARPE19) (HCT116 p53+/+; IC50 ARPE-19 / IC50 HCT116 p53+/+): 180.10
- Selectivity index (MCF10A) (HCT116 p53+/+; IC50 MCF10A / IC50 HCT116 p53+/+): 74.45
- Relative potency (+ anion to no anion), Ratio + anion:no anion (HCT116 p53+/+; ratio of IC50, HCT116 p53+/+): 1.35
- Selectivity indices relative to ARPE-19, Ratio + anion:no anion (HCT116 p53+/+; ratio of SI (ARPE-19), HCT116 p53+/+): 1.697
- Selectivity indices relative to MCF10A, Ratio + anion:no anion (HCT116 p53+/+; ratio of SI (MCF 10A), HCT116 p53+/+): 0.765
- IC50 (A549; A549, mean of replicates, read-out: Mean IC50): 0.68 µM
- IC50 (A549; A549, read-out: Mean IC50 values): 0.68 µM
- IC50 (A549; A549, single replicate, read-out: IC50 values for each replicate): 0.747 µM and 0.62 µM and 0.667 µM and 0.685 µM
- Selectivity index (ARPE19) (A549; IC50 ARPE-19 / IC50 A549): 176.93
- Selectivity index (MCF10A) (A549; IC50 MCF10A / IC50 A549): 73.14
- Relative potency (+ anion to no anion), Ratio + anion:no anion (A549; ratio of IC50, A549): 2.92
- Selectivity indices relative to ARPE-19, Ratio + anion:no anion (A549; ratio of SI (ARPE-19), A549): 0.783
- Selectivity indices relative to MCF10A, Ratio + anion:no anion (A549; ratio of SI (MCF 10A), A549): 0.353
- IC50 (BxPC3; BXPC3, mean of replicates, read-out: Mean IC50): 0.491 µM
- IC50 (BxPC3; BXPC3, read-out: Mean IC50 values): 0.491 µM
- IC50 (BxPC3; BXPC3, single replicate, read-out: IC50 values for each replicate): 0.544 µM and 0.586 µM and 0.26 µM and 0.478 µM and 0.588 µM
- Selectivity index (ARPE19) (BxPC3; IC50 ARPE-19 / IC50 BXPC3): 245.03
- Selectivity index (MCF10A) (BxPC3; IC50 MCF10A / IC50 BXPC3): 101.29
- Relative potency (+ anion to no anion), Ratio + anion:no anion (BxPC3; ratio of IC50, BXPC3): 1.68
- Selectivity indices relative to ARPE-19, Ratio + anion:no anion (BxPC3; ratio of SI (ARPE-19), BXPC3): 1.364
- Selectivity indices relative to MCF10A, Ratio + anion:no anion (BxPC3; ratio of SI (MCF 10A), BXPC3): 0.615
- IC50 (MCF10A non-cancer cells; MCF10A non-cancer, read-out: Mean IC50 values): 49.7 µM
- IC50 (MCF10A non-cancer cells; MCF10A, mean of replicates, read-out: Mean IC50): 49.7 µM
- IC50 (MCF10A non-cancer cells; MCF10A, single replicate, read-out: IC50 values for each replicate): 53.2 µM and 42.9 µM and 45.1 µM and 57.7 µM
- Relative potency (+ anion to no anion), Ratio + anion:no anion (MCF10A non-cancer cells; ratio of IC50, MCF10A): 1.03
- Selectivity index (ARPE19) (MiaPaCa2; IC50 ARPE-19 / IC50 MiaPaCa2): 2.28
- Selectivity index (MCF10A) (MiaPaCa2; IC50 MCF10A / IC50 MiaPaCa2): 0.94
- IC50 (MiaPaCa2; MiaPaCa2, mean of replicates, read-out: Mean IC50): 52.7 µM
- IC50 (MiaPaCa2; MiaPaCa2, read-out: Mean IC50 values): 52.7 µM
- IC50 (MiaPaCa2; MiaPaCa2, single replicate, read-out: IC50 values for each replicate): 63.7 µM and 63.6 µM and 47.2 µM and 43.5 µM and 49.7 µM and 48.3 µM
- Relative potency (+ anion to no anion), Ratio + anion:no anion (MiaPaCa2; ratio of IC50, MiaPaCa2): 4.46
- Selectivity indices relative to ARPE-19, Ratio + anion:no anion (MiaPaCa2; ratio of SI (ARPE-19), MiaPaCa2): 0.512
- Selectivity indices relative to MCF10A, Ratio + anion:no anion (MiaPaCa2; ratio of SI (MCF 10A), MiaPaCa2): 0.231
- IC50 (HCT116 p53-/-; HCT116 p53-/-, read-out: Mean IC50 values): 0.078 µM
- IC50 (HCT116 p53-/-; HCT116 p53-/-, single replicate, read-out: IC50 values for each replicate): 0.078 µM and 0.077 µM and 0.079 µM
- Selectivity index (ARPE19) (HCT116 p53-/-; IC50 ARPE-19 / IC50 HCT116 p53-/-): 1542.44
- Selectivity index (MCF10A) (HCT116 p53-/-; IC50 MCF10A / IC50 HCT116 p53-/-): 637.59
- Relative potency (+ anion to no anion), Ratio + anion:no anion (HCT116 p53-/-; ratio of IC50, HCT116 p53-/-): 0.57
- Selectivity indices relative to ARPE-19, Ratio + anion:no anion (HCT116 p53-/-; ratio of SI (ARPE-19), HCT116 p53-/-): 4.015
- Selectivity indices relative to MCF10A, Ratio + anion:no anion (HCT116 p53-/-; ratio of SI (MCF 10A), HCT116 p53-/-): 1.810

From PMC8222254, “Self-assembly of an anion receptor with metal-dependent kinase inhibition and potent in vitro anti-cancer properties” (Nature Communications, 2021)
